Assay results taken from patent US12661331B2 (priority 2019, dated 2026).

Tested on: PUUV
Parameters: species or system AG129 mice
Settings: mouse, in vivo

Structure (SMILES): O=C(O)c1ccc(F)c(F)c1Nc1ccc(I)cc1Cl [ATR-002, 2-(2-chloro-4-iodophenylamino)-N-3,4-difluoro benzoic acid]
- virus in the kidney: no virus could be detected
- virus in the lung: no virus could be detected
- virus titer reduction compared to animals treated with solvent only (75 mg/kg/day): complete virus titer reduction
